The results in this text go back to ChEMBL document CHEMBL2176963, “Design, synthesis, and biological evaluation of 3-(1H-1,2,3-triazol-1-yl)benzamide derivatives as Potent Pan Bcr-Abl inhibitors including the threonine(315)→isoleucine(315) mutant” (J Med Chem, 2012).

A value given as a limit tells only on which side of the number the result lay.

For experiment [1], the system named is K562. The experiment is described as follows: Antiproliferative activity against human K562 cells expressing wild type Bcr-Abl after 72 hrs by CCK-8 assay. As to conditions: K562, 72 h.
The nature of experiment [2]: Antiproliferative activity against human KU812 cells expressing wild type Bcr-Abl after 72 hrs by CCK-8 assay. As to conditions: KU812, 72 h.
A short description of experiment [3]: Antiproliferative activity against mouse BA/F3 cells expressing wild type Bcr-Abl after 72 hrs by CCK-8 assay. The settings on record: BaF3, 72 h.
A short description of the next experiment: cells. As to conditions: Mus musculus, BaF3, 72 h.
Experiment [4] deals with K562. The experiment is described as follows: Antiproliferative activity against imatinib-resistant human K562 cells expressing Bcr-Abl Q252H mutant after 72 hrs by CCK-8 assay. The settings on record: K562, 72 h.

On to `Cc1ccc(C(=O)Nc2cc(-n3cncn3)cc(C(F)(F)F)c2)cc1-n1cc(-c2cnc3[nH]ncc3c2)nn1`, for which the IC50 in the experiment with K562 [1] came out at 3.5 nM; in experiment [2] it was 0.46 nM; in experiment [3], 4.54 nM; in “cells”, 652 nM; in the experiment on K562 [4], 21.9 nM.
`Cc1ccc(C(=O)Nc2ccc(CN3CCCN(C)CC3)c(C(F)(F)F)c2)cc1-n1cc(-c2cnc3[nH]ncc3c2)nn1`: the IC50 turned out to be 0.8 nM in the experiment with K562 [1]; 0.38 nM in experiment [2]; 4.02 nM in experiment [3]; 294 nM in “cells”; 8.45 nM with K562 [4].
For `Cc1ccc(C(=O)Nc2ccc(CN3CCN(C)CC3)c(C(F)(F)F)c2)cc1-n1cc(-c2cnc3ncccn23)nn1`, the IC50 with K562 [1] amounted to 3.87 nM; in experiment [2], 11.1 nM; in experiment [3], 47.9 nM; in “cells”, 8840 nM; with K562 [4], 16.2 nM.
For `CN1CCN(Cc2ccc(NC(=O)c3cccc(-n4cc(-c5cnc6[nH]ncc6c5)nn4)c3)cc2C(F)(F)F)CC1`, the IC50 in the experiment with K562 [1] was found to be 0.67 nM; in experiment [2], 1.34 nM; in experiment [3] it was 3.98 nM; in “cells” it was 728 nM; in the experiment on K562 [4] it was 10.8 nM.
Take `Cc1ccc(C(=O)Nc2ccc(CN3CCN(C)CC3)c(C(F)(F)F)c2)cc1-n1cc(-c2cnc(NC3CCCCC3)nc2)nn1`: the half-maximal inhibitory concentration (IC50) in the experiment with K562 [1] was 7.04 nM; in experiment [2] it was 1.57 nM; in experiment [3] it was 28.3 nM; in “cells” it was 3630 nM; in the experiment on K562 [4], 72.8 nM.
For `Cc1ccc(C(=O)Nc2ccc(CN3CCN(C)CC3)c(C(F)(F)F)c2)cc1-n1cc(-c2cnc3ccccn23)nn1`, the IC50 was 0.63 nM in the experiment with K562 [1]; 0.16 nM in experiment [2]; 4.54 nM in experiment [3]; 178 nM in “cells”; 1.85 nM in the experiment on K562 [4].
`CCc1ccc(C(=O)Nc2ccc(CN3CCN(C)CC3)c(C(F)(F)F)c2)cc1-n1cc(-c2cnc3[nH]ncc3c2)nn1`: the IC50 was 0.85 nM in the experiment on K562 [1]; 0.39 nM in experiment [2]; 4.04 nM in experiment [3]; 282 nM in the experiment “cells”; 8.96 nM in the experiment on K562 [4].
The corresponding values for `CCNc1ncc(-c2cn(-c3cc(C(=O)Nc4ccc(CN5CCN(C)CC5)c(C(F)(F)F)c4)ccc3C)nn2)cn1` are 1.26 nM, 0.2 nM, 3.04 nM, 405 nM and 20.2 nM.
For the compound `Cc1ccc(C(=O)Nc2ccc(CN3CCC(N(C)C)CC3)c(C(F)(F)F)c2)cc1-n1cc(-c2cnc3[nH]ncc3c2)nn1`, the IC50 with K562 [1] was found to be 0.67 nM; in experiment [2], 0.43 nM; in experiment [3] it was 2.76 nM; in “cells”, 527 nM; in the experiment on K562 [4], 6.56 nM.
Taken in the same sequence, the figures for `CN1CCN(Cc2ccc(NC(=O)c3ccc(Br)c(-n4cc(-c5cnc6[nH]ncc6c5)nn4)c3)cc2C(F)(F)F)CC1` were 0.23 nM, 0.1 nM, 3.28 nM, 46.4 nM and 1.49 nM.
The corresponding values for `CC(C)c1ccc(C(=O)Nc2ccc(CN3CCN(C)CC3)c(C(F)(F)F)c2)cc1-n1cc(-c2cnc3[nH]ncc3c2)nn1` are 74 nM, 14.2 nM, 420 nM, 2060 nM and 219 nM.
Regarding `Cc1ccc(C(=O)Nc2ccc(CN3CCN(C)CC3)c(C(F)(F)F)c2)cc1-n1cc(-c2cnc(NC3CC3)nc2)nn1`, the IC50 in the experiment with K562 [1] amounted to 1.24 nM; in experiment [2], 0.22 nM; in experiment [3], 3.01 nM; in the experiment “cells”, 579 nM; with K562 [4] it was 19.2 nM.
Taken in the same sequence, the figures for `Cc1ccc(C(=O)Nc2ccc(CN3CCN(C)CC3)c(C(F)(F)F)c2)cc1-n1cc(-c2cnc3cccnn23)nn1` were 35.8 nM, 14.6 nM, 27.4 nM, > 10000 nM and 1.41 nM.
As to `Cc1ccc(C(=O)Nc2ccc(CN3CCN(C)CC3)c(C(F)(F)F)c2)cc1-n1cc(-c2cnc3ncnn3c2)nn1`, the IC50 with K562 [1] was found to be 40.9 nM; in experiment [2] it was 11.2 nM; in experiment [3], 316 nM; in “cells” it was 533 nM; in the experiment on K562 [4], 76.8 nM.
The corresponding values for `Cc1ccc(C(=O)Nc2ccc(CN3CC[C@@H](N(C)C)C3)c(C(F)(F)F)c2)cc1-n1cc(-c2cnc3[nH]ncc3c2)nn1` are 0.31 nM, 0.24 nM, 3.43 nM, 544 nM and 3.15 nM.
Turning to `Cc1ccc(C(=O)Nc2ccc(CN3CCN(C)CC3)c(C(F)(F)F)c2)cc1-n1cc(-c2cnc(NC(C)C)nc2)nn1`, the IC50 in the experiment with K562 [1] stood at 7.26 nM; in experiment [2], 1.44 nM; in experiment [3], 32.8 nM; in “cells”, 799 nM; in the experiment on K562 [4] it was 81.2 nM.
Taken in the same sequence, the figures for `Cc1ccc(Nc2ncc3c(n2)N(C)C(=O)N(c2cc(NC(=O)c4cccc(C(F)(F)F)c4)ccc2C)C3)cn1` were 0.44 nM, 0.08 nM, 3.15 nM, 6.18 nM and 2.6 nM.
Taken in the same sequence, the figures for `Cc1ncn(-c2cc(NC(=O)c3ccc(C)c(-n4cc(-c5cnc6[nH]ncc6c5)nn4)c3)cc(C(F)(F)F)c2)n1` were 2.9 nM, 0.4 nM, 3.68 nM, 620 nM and 34.2 nM.
As to `Cc1ccc(C(=O)Nc2ccc(CN3CCN(C)CC3)c(C(F)(F)F)c2)cc1-n1cc(-c2cnn3cccnc23)nn1`, the IC50 in the experiment with K562 [1] is 2.45 nM; in experiment [2], 1.51 nM; in experiment [3], 7.31 nM; in “cells”, 1440 nM; with K562 [4], 17.1 nM.
For `CNc1ncc(-c2cn(-c3cc(C(=O)Nc4ccc(CN5CCN(C)CC5)c(C(F)(F)F)c4)ccc3C)nn2)cn1`, the IC50 with K562 [1] amounted to 0.67 nM; in experiment [2] it was 0.16 nM; in experiment [3] it was 2.74 nM; in “cells”, 299 nM; with K562 [4], 11 nM.
In the case of `Cc1ccc(C(=O)Nc2ccc(CN3CCN(C)CC3)c(C(F)(F)F)c2)cc1-n1cc(-c2cnc(N3CCCCC3)nc2)nn1`, the IC50 in the experiment with K562 [1] was determined as 798 nM; in experiment [2], 158 nM; in experiment [3] it was 1240 nM; in the experiment “cells”, 3590 nM; in the experiment with K562 [4], 893 nM.
The corresponding values for `Cc1ccc(C(=O)Nc2ccc(CN3CCCCC3)c(C(F)(F)F)c2)cc1-n1cc(-c2cnc3[nH]ncc3c2)nn1` are 3.22 nM, 0.47 nM, 5.39 nM, 3510 nM and 31.1 nM.
`CN1CCN(Cc2ccc(NC(=O)c3ccc(C4CC4)c(-n4cc(-c5cnc6[nH]ncc6c5)nn4)c3)cc2C(F)(F)F)CC1`: the IC50 with K562 [1] turned out to be 5.69 nM; in experiment [2] it was 4.05 nM; in experiment [3] it was 32.9 nM; in the experiment “cells”, 1160 nM; with K562 [4], 37.5 nM.
For the compound `Cc1ccc(C(=O)Nc2ccc(CN3CCN(C)CC3)c(C(F)(F)F)c2)cc1-n1cc(-c2cnc(N)nc2)nn1`, the IC50 in the experiment on K562 [1] turned out to be 0.85 nM; in experiment [2] it was 0.2 nM; in experiment [3], 3.35 nM; in the experiment “cells”, 494 nM; in the experiment on K562 [4], 17.1 nM.
Taken in the same sequence, the figures for `Cc1ccc(C(=O)Nc2ccc(CN3CCC(N4CCN(C)CC4)CC3)c(C(F)(F)F)c2)cc1-n1cc(-c2cnc3[nH]ncc3c2)nn1` were 1.25 nM, 1.48 nM, 23.8 nM, 873 nM and 4.32 nM.
On to `Cc1ccc(C(=O)Nc2ccc(CN3C[C@H]4CN(C)C[C@H]4C3)c(C(F)(F)F)c2)cc1-n1cc(-c2cnc3[nH]ncc3c2)nn1`, for which the IC50 is 0.25 nM with K562 [1]; 0.4 nM in experiment [2]; 3.66 nM in experiment [3]; 473 nM in “cells”; 3.55 nM in the experiment with K562 [4].
Consider `Cc1ccc(C(=O)Nc2ccc(CN3CCCC3)c(C(F)(F)F)c2)cc1-n1cc(-c2cnc3[nH]ncc3c2)nn1`, for which the half-maximal inhibitory concentration (IC50) was 0.66 nM in the experiment on K562 [1]; 0.19 nM in experiment [2]; 2.47 nM in experiment [3]; 939 nM in “cells”; 12.1 nM with K562 [4].
In the case of `Cc1ccc(C(=O)Nc2ccc(CN3CCN(C)CC3)c(C(F)(F)F)c2)cc1-n1cc(-c2ccc3[nH]ncc3c2)nn1`, the IC50 worked out at 12.4 nM with K562 [1]; 12.2 nM in experiment [2]; 56.2 nM in experiment [3]; 754 nM in the experiment “cells”; 109 nM in the experiment on K562 [4].
For `Cc1ccc(C(=O)Nc2ccc(CN3CCN(C)CC3)c(C(F)(F)F)c2)cc1-n1cc(-c2cnc3[nH]ccc3c2)nn1`, the 50% inhibitory concentration (IC50) was 0.42 nM in the experiment with K562 [1]; 0.14 nM in experiment [2]; 3.16 nM in experiment [3]; 66.9 nM in the experiment “cells”; 3.89 nM in the experiment with K562 [4].
The corresponding values for `Cc1ccc(C(=O)Nc2ccc(CN3CCN(C)CC3)c(C(F)(F)F)c2)cc1-n1cc(-c2cnc(NCc3ccccc3)nc2)nn1` are 8.82 nM, 1.89 nM, 28.2 nM, 3500 nM and 181 nM.
With `Cc1ccc(C(=O)Nc2ccc(CN3CCOCC3)c(C(F)(F)F)c2)cc1-n1cc(-c2cnc3[nH]ncc3c2)nn1`, the half-maximal inhibitory concentration (IC50) with K562 [1] came out at 3.41 nM; in experiment [2] it was 0.46 nM; in experiment [3] it was 4.46 nM; in “cells”, 1560 nM; in the experiment on K562 [4] it was 41.1 nM.
Regarding `Cc1cn(-c2cc(NC(=O)c3ccc(C)c(-n4cc(-c5cnc6[nH]ncc6c5)nn4)c3)cc(C(F)(F)F)c2)cn1`, the IC50 was 3.37 nM in the experiment with K562 [1]; 0.73 nM in experiment [2]; 4.72 nM in experiment [3]; 656 nM in the experiment “cells”; 25.7 nM with K562 [4].
